What all share (test): Anti-microbial rate of finished cotton textiles, FZ/T73023-2006 D.8 shocking method
Holding throughout (type): cell-based

Experiment [1] deals with Escherichia Coli (E. coli, ATCC25922). The conditions noted are these: Escherichia coli, ATCC25922, finishing liquid 1.0 wt %, read-out: Anti-microbial rate (%) of cotton textiles finished with compound E (1.0 wt %), E. coli. The source says: (§1) Each of the reaction products (i.e., compound E) according to Examples 1-21 was used to prepare an anti-microbial agent (e.g., a finishing liquid), and the anti-microbial effects were different depending on compound E and conditions of use.
(§2) Remarks: 1) in the data of anti-microbial rate in Table 5: Examples 1-9 used a soaking-rolling-drying process to finish cotton fabric, where the bath ratio (i.e., the ratio of the weight of a liquid containing compound E to the weight of the cotton fabric) was 20:1, the residual liquid ratio was 90%, and the drying process was conducted at 85° C. for 30 minutes; Examples 10-18 were prepared by a soaking-high speed spinning-drying method, where the bath ratio was 20:1, the residual liquid ratio was 90%, and the drying process was conducted at 85° C. for 20 min; Examples 19-21 were prepared by a spraying-spinning-drying process with a bath ratio of 30:1, a residual liquid ratio of 85% after drying, and the drying process was conducted at 105° C. for 5 minutes.
(§3) 2) Table 5 data test method: FZ/T73023-2006 anti-microbial textiles D.8 shocking method. In addition, the inhibition zone method (FZ/T73023-2006 anti-microbial textiles—Appendix E—inhibition zone method) was used to test whether the active compound (E) was released from the finished cotton textiles, the inhibition zone test result of the 21 examples and zwitterions were 0 mm, and thus compound E was not released from the finished cotton textiles. The anti-microbial finishing agent used in the comparative experiment was zwitterion with the molecular structure
(§4) 3) The composition of the finishing liquid in Table 5 was: compound E 1.0 wt %, sodium bicarbonate 1.0 wt %, and the rest of the finishing liquid was water.

Experiment [2] relates to Candida Albicans (C. albicans 10231). The conditions noted are these: Candida albicans, finishing liquid 1.0 wt %, read-out: Anti-microbial rate (%) of cotton textiles finished with compound E (1.0 wt %), C. albicans.
Description: as §1, §2, §3, §4

Experiment [3] relates to Staphylococcus Aureus (S. aureus, ATCC 6538). As to conditions: Staphylococcus aureus, ATCC6538, finishing liquid 1.0 wt %, read-out: Anti-microbial rate (%) of cotton textiles finished with compound E (1.0 wt %), S. aureus.
Description: as §1, §2, §3, §4

Where two headings read alike, the source gives them in different places.

For the molecule `C[N+](C)(CCCS(=O)(=O)[O-])CCOc1nc(Cl)nc(Cl)n1` [Comparative Experiment, reference compound], the killing at 1 % in experiment [1] (times of washing 0) turned out to be 99.9%; in experiment [1] (times of washing 10), 83%; in experiment [1] (times of washing 50) it was 75%; in experiment [2] (times of washing 0), 95%; in experiment [2] (times of washing 10), 78%; in experiment [2] (times of washing 50), 69%. Moreover, the results for the killing at 1 % in experiment [3] (times of washing 0), in experiment [3] (times of washing 10) and in experiment [3] (times of washing 50) were 99.9%, 86% and 80%, respectively.
Consider `C[N+](C)(C)CCNc1nc(Cl)nc(Cl)n1` [Example 3], for which the killing at 1 % in experiment [1] (times of washing 0) came out at 100%; in experiment [1] (times of washing 10) it was 99.9%; in experiment [1] (times of washing 50), 99.2%; in experiment [2] (times of washing 0) it was 99.9%; in experiment [2] (times of washing 10) it was 99.9%; in experiment [2] (times of washing 50) it was 99.9%. Moreover, the figures for the killing at 1 % in experiment [3] (times of washing 0), in experiment [3] (times of washing 10) and in experiment [3] (times of washing 50) were 100%, 99.9% and 99.9%, respectively.
With `C[N+](C)(C)COc1nc(Cl)nc(Cl)n1` [Example 5], the killing at 1 % in experiment [1] (times of washing 0) stood at 100%; in experiment [1] (times of washing 10) it was 99.9%; in experiment [1] (times of washing 50), 99.1%; in experiment [2] (times of washing 0), 99.9%; in experiment [2] (times of washing 10), 99.9%; in experiment [2] (times of washing 50), 97.9%. In addition, the killing at 1 % in experiment [3] (times of washing 0) was determined as 100%; in experiment [3] (times of washing 10), 99.9%; in experiment [3] (times of washing 50), 99.9%.
With `CCCCCCCC[N+](C)(C)CC(C)Oc1nc(Cl)nc(Cl)n1` (stereo not drawn) [Example 6], the killing at 1 % in experiment [1] (times of washing 0) was 100%; in experiment [1] (times of washing 10), 99.9%; in experiment [1] (times of washing 50), 99.5%; in experiment [2] (times of washing 0), 99.9%; in experiment [2] (times of washing 10), 99.9%; in experiment [2] (times of washing 50), 97.9%. In addition, the killing at 1 % in experiment [3] (times of washing 0) is 100%; in experiment [3] (times of washing 10), 99.9%; in experiment [3] (times of washing 50), 99.9%.
`CCCCCCCCCCCCCC[n+]1ccn(CCCNc2nc(C)nc(Cl)n2)c1` [Example 7]: the killing at 1 % came to 100% in experiment [1] (times of washing 0); 99.9% in experiment [1] (times of washing 10); 99.9% in experiment [1] (times of washing 50); 99.9% in experiment [2] (times of washing 0); 99.9% in experiment [2] (times of washing 10); 98.6% in experiment [2] (times of washing 50). Besides, the figures for the killing at 1 % in experiment [3] (times of washing 0), in experiment [3] (times of washing 10) and in experiment [3] (times of washing 50) were 100%, 99.9% and 99.9%, respectively.
Turning to `CCCCCCCCCC[n+]1ccc(CCOc2nc(Cl)nc(Br)n2)cc1` [Example 8], the killing at 1 % in experiment [1] (times of washing 0) was 100%; in experiment [1] (times of washing 10) it was 99.9%; in experiment [1] (times of washing 50), 99.5%; in experiment [2] (times of washing 0), 99.9%; in experiment [2] (times of washing 10), 99.9%; in experiment [2] (times of washing 50), 98.9%. Moreover, the killing at 1 % in experiment [3] (times of washing 0) was 100%; in experiment [3] (times of washing 10), 99.9%; in experiment [3] (times of washing 50) it was 99.9%.
As for `C[n+]1ccc(CNc2nc(Cl)nc([N+](=O)[O-])n2)cc1` [Example 9], the killing at 1 % was 100% in experiment [1] (times of washing 0); 99.9% in experiment [1] (times of washing 10); 99.9% in experiment [1] (times of washing 50); 99.9% in experiment [2] (times of washing 0); 99.9% in experiment [2] (times of washing 10); 99.2% in experiment [2] (times of washing 50). Besides, the figures for the killing at 1 % in experiment [3] (times of washing 0), in experiment [3] (times of washing 10) and in experiment [3] (times of washing 50) were 100%, 99.9% and 99.9%, respectively.
For the molecule `Cc1nc(Cl)nc(OCCn2cc[n+](C)c2)n1` [Example 12], the killing at 1 % came out at 100% in experiment [1] (times of washing 0); 99.9% in experiment [1] (times of washing 10); 98.9% in experiment [1] (times of washing 50); 99.9% in experiment [2] (times of washing 0); 99.9% in experiment [2] (times of washing 10); 91.9% in experiment [2] (times of washing 50). Besides, the killing at 1 % was 100% in experiment [3] (times of washing 0), 99.9% in experiment [3] (times of washing 10) and 99.5% in experiment [3] (times of washing 50).
As for `C[n+]1ccn(CCCCCCCCCCCCCCCCCCOc2nc(Cl)nc(Cl)n2)c1` [Example 13], the killing at 1 % in experiment [1] (times of washing 0) was 100%; in experiment [1] (times of washing 10) it was 99.9%; in experiment [1] (times of washing 50) it was 99.5%; in experiment [2] (times of washing 0), 99.9%; in experiment [2] (times of washing 10), 99.9%; in experiment [2] (times of washing 50), 98.9%. Besides, the figures for the killing at 1 % in experiment [3] (times of washing 0), in experiment [3] (times of washing 10) and in experiment [3] (times of washing 50) were 100%, 99.9% and 99.9%, respectively.
As to `C[n+]1ccn(CCCNc2nc(Cl)nc(Cl)n2)c1` [Example 14], the killing at 1 % is 100% in experiment [1] (times of washing 0); 99.9% in experiment [1] (times of washing 10); 99.1% in experiment [1] (times of washing 50); 99.9% in experiment [2] (times of washing 0); 99.9% in experiment [2] (times of washing 10); 99.9% in experiment [2] (times of washing 50). Besides, the killing at 1 % worked out at 100% in experiment [3] (times of washing 0), 99.9% in experiment [3] (times of washing 10) and 99.5% in experiment [3] (times of washing 50).
On to `C[n+]1ccc(COc2nc(Cl)nc(Cl)n2)cc1` [Example 15], for which the killing at 1 % in experiment [1] (times of washing 0) stood at 100%; in experiment [1] (times of washing 10), 99.9%; in experiment [1] (times of washing 50), 98.9%; in experiment [2] (times of washing 0), 99.9%; in experiment [2] (times of washing 10) it was 99.9%; in experiment [2] (times of washing 50), 92.9%. Also, the figures for the killing at 1 % in experiment [3] (times of washing 0), in experiment [3] (times of washing 10) and in experiment [3] (times of washing 50) were 100%, 99.9% and 99.1%, respectively.
On to `CCCCCCCCCCCC[n+]1cc[n+](CCCCCCCCCCCC)c(CCSc2nc(Cl)nc(Cl)n2)c1` [Example 16], for which the killing at 1 % is 100% in experiment [1] (times of washing 0); 99.9% in experiment [1] (times of washing 10); 99.8% in experiment [1] (times of washing 50); 99.9% in experiment [2] (times of washing 0); 99.9% in experiment [2] (times of washing 10); 93.6% in experiment [2] (times of washing 50). Also, the killing at 1 % in experiment [3] (times of washing 0) was 100%; in experiment [3] (times of washing 10), 99.9%; in experiment [3] (times of washing 50), 99.9%.
As to `CCCCCCCCCCCC[N+](C)(C)CCN(CCOc1nc(Cl)nc(Cl)n1)CC[N+](C)(C)CCCCCCCCCCCC` [Example 17], the killing at 1 % came out at 100% in experiment [1] (times of washing 0); 99.9% in experiment [1] (times of washing 10); 99.5% in experiment [1] (times of washing 50); 99.9% in experiment [2] (times of washing 0); 99.9% in experiment [2] (times of washing 10); 99.3% in experiment [2] (times of washing 50). Further, the killing at 1 % in experiment [3] (times of washing 0) amounted to 100%; in experiment [3] (times of washing 10) it was 99.9%; in experiment [3] (times of washing 50), 99.9%.
Regarding `C[N+](C)(C)CCCCCCCCCCCCCCCCCCN(CCCCCCCCCCCCCCCCCC[N+](C)(C)C)CCOc1nc(Cl)nc(Cl)n1` [Example 18], the killing at 1 % in experiment [1] (times of washing 0) was found to be 100%; in experiment [1] (times of washing 10), 99.9%; in experiment [1] (times of washing 50), 97.9%; in experiment [2] (times of washing 0) it was 99.9%; in experiment [2] (times of washing 10) it was 99.9%; in experiment [2] (times of washing 50), 96.9%. The killing at 1 % in experiment [3] (times of washing 0) was 100%; in experiment [3] (times of washing 10), 99.9%; in experiment [3] (times of washing 50), 98.9%.
As for `Clc1nc(Cl)nc(OCCC[P+](c2ccccc2)(c2ccccc2)c2ccccc2)n1` [Example 20], the killing at 1 % in experiment [1] (times of washing 0) came to 100%; in experiment [1] (times of washing 10), 99.9%; in experiment [1] (times of washing 50), 95.9%; in experiment [2] (times of washing 0), 99.9%; in experiment [2] (times of washing 10) it was 99.9%; in experiment [2] (times of washing 50), 92.9%. The killing at 1 % in experiment [3] (times of washing 0) came out at 100%; in experiment [3] (times of washing 10) it was 99.9%; in experiment [3] (times of washing 50), 97.9%.

Source of the values: patent publication US12290073B2, “Anti-microbial compound and methods of use” (SHENZHEN UNIVERSITY, priority 2019, dated 2025).
